The values below come from US20260078130A1, “NAMPT MODULATORS, PREPARATIONS, AND USES THEREOF” (SIRONAX LTD., priority 2022, published 2026).

The target in assay [1] is T1, human enzyme NAMPT (full length) (Homo sapiens, UniProt P43490).
T1 construct: human enzyme NAMPT (full length)
As to the kind of experiment: NMN fluorescence biochemical assay (stimulation of NMN synthesis by NAMPT). As to conditions: for pEC50: concentration giving half-maximal activation, read-out: Enzymatic EC50; for Enzymatic Emax: fold change of maximal activation compared to DMSO. The method in brief: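 Full-length human NAMPT (100 nM) was preincubated 15 min at 37 °C with compound in 50 mM Tris-HCl pH 7.5, 10 mM MgCl2, 2 mM DTT, then reacted 1 h at 37 °C with 50 μM NAM, 100 μM PRPP, 4 mM ATP (stated solution concentrations). NMN was derivatised with acetophenone/KOH then formic acid and read at Ex/Em 382/445 nm; EC50 and Emax (fold over DMSO) reported.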

In assay [2] the test system is endogenous NAMPT in U2OS cells. As to the kind of experiment: Cellular NAD+ modulation assay (NAD/NADH-Glo, U2OS cells). The conditions noted are these: Homo sapiens; for maximal fold induction: read-out: Cellular Emax. In kind it is cell-based. In outline:
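Endogenous NAMPT stimulation in U2OS cells treated with compound dilution series for 24 h at 37 °C. Cells lysed with DTAB base, acid-treated 15 min at 60 °C, neutralized, NAD+ read by NAD/NADH-Glo luminescence after 40 min at room temperature. EC50 and Emax (fold over DMSO) derived.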

[3] abbreviates: NMN synthesis by purified human NAMPT (100 nM).
Setting [4] is: 24 hours incubation with compound.
[5] abbreviates: NMN fluorescence assay, purified human NAMPT 100 nM.
The mark [6] stands for this setting: 24 hours incubation, cellular NAD+.

pEC50: −log10 of the molar value. Where two headings read alike, the source gives them in different places.

T1 sequence (P43490 whole entry): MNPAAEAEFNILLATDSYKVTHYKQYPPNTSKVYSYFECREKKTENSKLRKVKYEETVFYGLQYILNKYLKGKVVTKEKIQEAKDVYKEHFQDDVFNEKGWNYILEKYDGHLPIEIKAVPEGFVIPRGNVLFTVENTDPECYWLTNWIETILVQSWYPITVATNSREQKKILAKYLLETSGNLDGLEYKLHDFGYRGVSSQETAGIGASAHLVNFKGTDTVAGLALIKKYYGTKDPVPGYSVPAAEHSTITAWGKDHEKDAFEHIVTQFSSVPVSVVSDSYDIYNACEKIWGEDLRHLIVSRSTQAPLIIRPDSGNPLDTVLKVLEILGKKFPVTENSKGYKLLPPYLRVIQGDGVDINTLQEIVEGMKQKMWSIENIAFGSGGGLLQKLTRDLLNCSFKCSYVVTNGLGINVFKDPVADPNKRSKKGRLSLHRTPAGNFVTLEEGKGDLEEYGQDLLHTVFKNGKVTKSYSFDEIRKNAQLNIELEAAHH

Usually pEC50 stands for −log10 of the EC50, conventionally taken in molar units. Turning to `CC1c2cc(CN3CC4(COC4)C3)ccc2C(=O)N1Cc1ccc2[nH]c(=O)oc2c1` (single isomer, unassigned) [Compound 187], in assay [1] (setting [3]), the pEC50 is 5.30 to 6.30. Moreover, in assay [1], the “Enzymatic Emax” value is reported as “B (3≥B>2)”. Besides, in assay [2] (setting [4]), the pEC50 is 5.30 to 6.30 and the maximal fold induction is greater than 1.5.

With `COc1ccc(CN2C(=O)c3ncsc3C2Cc2c(Cl)cnn2C)cc1` (stereo not drawn) [Compound 615, 6-((4-chloro-1-methyl-1H-pyrazol-5-yl)methyl)-5-(4-methoxybenzyl)-5,6-dihydro-4H-pyrrolo[3,4-d]thiazol-4-one], the pEC50 is no more than 5.30 in assay [1] (setting [5]) and 5.30 to 6.30 in assay [2] (setting [6]). The “Enzymatic Emax” value in assay [1] is given as “B (3≥B>2)”. Further, the maximal fold induction in assay [2] (setting [6]) is 1.2 to 1.5.

In the case of `Cc1nn(C)c(C#N)c1CC1c2ccccc2C(=O)N1CC1CC2(CNC(=O)O2)C1` (stereo not drawn) [Compound 479, 1,3-dimethyl-4-((3-oxo-2-((6-oxo-5-oxa-7-azaspiro[3.4]octan-2-yl)methyl)isoindolin-1-yl)methyl)-1H-pyrazole-5-carbonitrile], in assay [1] (setting [5]), the pEC50 is 5.30 to 6.30. Moreover, the “Enzymatic Emax” value in assay [1] was “B (3≥B>2)”. In assay [2] (setting [6]), the pEC50 was greater than 6.30 and the maximal fold induction was greater than 1.5.

With `Cn1ncc(Cl)c1CC1c2ccccc2C(=O)N1Cc1n[nH]c(=O)o1` (stereo not drawn) [Compound 632, 5-((1-((4-chloro-1-methyl-1H-pyrazol-5-yl)methyl)-3-oxoisoindolin-2-yl)methyl)-1,3,4-oxadiazol-2(3H)-one], the pEC50 in assay [1] (setting [5]) is no more than 5.30; in assay [2] (setting [6]), 5.30 to 6.30. Moreover, in assay [1], the “Enzymatic Emax” value is given as “B (3≥B>2)”. Further, the maximal fold induction in assay [2] (setting [6]) was greater than 1.5.

With `Cn1ncc(Cl)c1CC1c2ccccc2C(=O)N1C/C(F)=C/c1c[nH]nc1Cl` (stereo not drawn) [Compound 519, (Z)-3-((4-chloro-1-methyl-1H-pyrazol-5-yl)methyl)-2-(3-(3-chloro-1H-pyrazol-4-yl)-2-fluoroallyl)isoindolin-1-one], the negative-log EC50 (pEC50) in assay [1] (setting [5]) and in assay [2] (setting [6]) was 5.30 to 6.30 throughout. Further, the “Enzymatic Emax” value in assay [1] is on record as “B (3≥B>2)”. For the same compound, in assay [2] (setting [6]), the maximal fold induction was greater than 1.5.

As to `N#Cc1ccccc1CC1c2ccccc2C(=O)N1Cc1cc(F)c(O)c(F)c1` (stereo not drawn) [Compound 197, 2-((2-(3,5-difluoro-4-hydroxybenzyl)-3-oxoisoindolin-1-yl)methyl)benzonitrile], the pEC50 in assay [1] (setting [3]) is 5.30 to 6.30. Further, in assay [1], the “Enzymatic Emax” value is recorded as “B (3≥B>2)”. Moreover, in assay [2] (setting [4]), the negative logarithm of the EC50 (pEC50) is 5.30 to 6.30 and the maximal fold induction is greater than 1.5.

For `Cc1ccn(C)c(=O)c1CC1c2ccccc2C(=O)N1CC1CC2(CNC(=O)O2)C1` (stereo not drawn) [Compound 481, 2-((1-((1,4-dimethyl-2-oxo-1,2-dihydropyridin-3-yl)methyl)-3-oxoisoindolin-2-yl)methyl)-5-oxa-7-azaspiro[3.4]octan-6-one], the pEC50 in assay [1] (setting [5]) is 5.30 to 6.30. Also, in assay [1], the “Enzymatic Emax” value is listed as “B (3≥B>2)”. In addition, in assay [2] (setting [6]), the pEC50 is 5.30 to 6.30 and the maximal fold induction was greater than 1.5.

In the case of `O=C1c2ccccc2C(Cc2ncccc2Br)N1Cc1ccc2[nH]c(=O)oc2c1` (stereo not drawn) [Compound 205, 6-((1-((3-bromopyridin-2-yl)methyl)-3-oxoisoindolin-2-yl)methyl)benzo[d]oxazol-2(3H)-one], the pEC50 in assay [1] (setting [3]) was greater than 6.30. Further, the “Enzymatic Emax” value in assay [1] is “A (A>3)”. Besides, in assay [2] (setting [4]), the pEC50 is greater than 6.30 and the maximal fold induction is greater than 1.5.

`CN(C)CCOc1nn(C)c(CC2c3ccccc3C(=O)N2CC2CC3(CNC(=O)O3)C2)c1Cl` (stereo not drawn) [Compound 523, 2-((1-((4-chloro-3-(2-(dimethylamino)ethoxy)-1-methyl-1H-pyrazol-5-yl)methyl)-3-oxoisoindolin-2-yl)methyl)-5-oxa-7-azaspiro[3.4]octan-6-one]: the pEC50 in assay [1] (setting [5]) was greater than 6.30; in assay [2] (setting [6]), 5.30 to 6.30. The “Enzymatic Emax” value in assay [1] was “C (2≥C)”. The maximal fold induction in assay [2] (setting [6]) was greater than 1.5.

As to `Cn1ncc(Cl)c1CC1c2ccccc2C(=O)N1Cc1c[nH]c(=O)s1` (stereo not drawn) [Compound 592, 5-((1-((4-chloro-1-methyl-1H-pyrazol-5-yl)methyl)-3-oxoisoindolin-2-yl)methyl)thiazol-2(3H)-one], the pEC50 in assay [1] (setting [5]) and in assay [2] (setting [6]) was greater than 6.30 in each case. For the same compound, the “Enzymatic Emax” value in assay [1] is on record as “A (A>3)”. In assay [2] (setting [6]), the maximal fold induction is greater than 1.5.

With `O=C1c2ccccc2C(Cc2nccc(F)c2Br)N1Cc1ccc2[nH]c(=O)oc2c1` (stereo not drawn) [Compound 211, 6-((1-((3-bromo-4-fluoropyridin-2-yl)methyl)-3-oxoisoindolin-2-yl)methyl)benzo[d]oxazol-2(3H)-one], the pEC50 in assay [1] (setting [3]) and in assay [2] (setting [4]) was greater than 6.30 throughout. Further, the “Enzymatic Emax” value in assay [1] is “A (A>3)”. Moreover, the maximal fold induction in assay [2] (setting [4]) is greater than 1.5.

Consider `N#Cc1ccccc1CC1c2ccccc2C(=O)N1Cc1ccc2[nH]c(=O)oc2c1` (stereo not drawn) [Compound 147, 2-((3-oxo-2-((2-oxo-2,3-dihydrobenzo[d]oxazol-6-yl)methyl)isoindolin-1-yl)methyl) benzonitrile], for which the pEC50 in assay [1] (setting [3]) is greater than 6.30. For the same compound, in assay [1], the “Enzymatic Emax” value is given as “A (A>3)”. In assay [2] (setting [4]), the pEC50 is greater than 6.30 and the maximal fold induction is greater than 1.5.

Take `CSc1ccc(CN2C(=O)c3ccccc3C2Cc2c(Cl)cnn2C)cc1` (stereo not drawn) [Compound 542, 3-((4-chloro-1-methyl-1H-pyrazol-5-yl)methyl)-2-(4-(methylthio)benzyl)isoindolin-1-one]: the pEC50 in assay [1] (setting [5]) was no more than 5.30. In assay [1], the “Enzymatic Emax” value is reported as “B (3≥B>2)”. Moreover, in assay [2] (setting [6]), the pEC50 is 5.30 to 6.30 and the maximal fold induction is 1.2 to 1.5.

For `Cc1ccc2c(c1)CN(Cc1ccc3[nH]c(=O)oc3c1)C2=O` [Compound 48, 6-((5-methyl-1-oxoisoindolin-2-yl)methyl)benzo[d]oxazol-2(3H)-one], in assay [1] (setting [3]), the pEC50 is no more than 5.30. For the same compound, the “Enzymatic Emax” value in assay [1] is “B (3≥B>2)”. Moreover, in assay [2] (setting [4]), the pEC50 was 5.30 to 6.30 and the maximal fold induction was greater than 1.5.

Consider `O=C1c2ccccc2C(Cc2ncccc2Br)N1CCCc1c[nH]nn1` (stereo not drawn) [Compound 347, 2-(3-(1H-1,2,3-triazol-4-yl)propyl)-3-((3-bromopyridin-2-yl)methyl)isoindolin-1-one], for which the pEC50 in assay [1] (setting [5]) and in assay [2] (setting [6]) was 5.30 to 6.30 each time. In assay [1], the “Enzymatic Emax” value was “A (A>3)”. The maximal fold induction in assay [2] (setting [6]) was greater than 1.5.

Regarding `O=C1c2ccccc2C(Cc2ncccc2Br)N1Cc1cc2nn[nH]c2cc1F` (stereo not drawn) [Compound 271, 3-((3-bromopyridin-2-yl)methyl)-2-((6-fluoro-1H-benzo[d][1,2,3]triazol-5-yl)methyl) isoindolin-1-one], the pEC50 in assay [1] (setting [3]) was 5.30 to 6.30. Further, the “Enzymatic Emax” value in assay [1] is listed as “A (A>3)”. Moreover, in assay [2] (setting [4]), the pEC50 is 5.30 to 6.30 and the maximal fold induction was greater than 1.5.

For the compound `N#Cc1cccc(F)c1C[C@H]1c2ccccc2C(=O)N1Cc1ccc2[nH]c(=O)oc2c1` [Compound 172, (S)-3-fluoro-2-((3-oxo-2-((2-oxo-2,3-dihydrobenzo[d]oxazol-6-yl)methyl)isoindolin-1-yl)methyl)benzonitrile], the negative-log EC50 (pEC50) in assay [1] (setting [3]) was greater than 6.30. In addition, the “Enzymatic Emax” value in assay [1] is “B (3≥B>2)”. Also, in assay [2] (setting [4]), the negative logarithm of the EC50 (pEC50) is greater than 6.30 and the maximal fold induction was greater than 1.5.

Regarding `Cc1ccc2c(c1)C(=O)N(Cc1ccc3[nH]nnc3c1)C2=O` [Compound 37, 2-((1H-benzo[d][1,2,3]triazol-5-yl)methyl)-5-methylisoindoline-1,3-dione], the pEC50 in assay [1] (setting [3]) is no more than 5.30. Further, in assay [1], the “Enzymatic Emax” value is “A (A>3)”. In assay [2] (setting [4]), the pEC50 was 5.30 to 6.30 and the maximal fold induction is no more than 1.2.
